What was measured:
BALB/c mice [1] = test: Cytokine levels in BALF (ELISA) after intranasal instillation; conditions: for cytokine levels in BALF at higher concentrations of the compound: instilled with GL-67:pCFA-CAT; for inhibition of cytokine production in the lung: without affecting gene expression
Description: Cytokine levels in the mouse BALF were quantitated using enzyme-linked immunosorbent assay (ELISA) kits as specified by the manufacturers. IFN-γ, TNF-α, IL1-α, IL-1β, IL-10 and IL-6 ELISA kits were from Genzyme Corporation, mKC, MIP-2 and GM-CSF ELISA kits were from R&D Systems, and Leukotriene B4 ELISA kit was from Perseptive Diagnostics.
BALB/c mice were instilled intranasally with 100 μl of complex as described. […] The animals were euthanized and their lungs were lavaged 24 h post-instillation using phosphate-buffered saline (PBS). The recovered BALF were centrifuged at 1,500 rpm for 4 min, and the resulting supernatants were removed and frozen at −80° C. for subsequent cytokine analysis. The cell pellets were resuspended in PBS for microscopic determination of cell number and cell types.
Separate groups of mice were instilled with either (m)pDNA or unmethylated pDNA alone, or vehicle, and their bronchoalveolar lavage fluids collected for analysis at 24 h post-treatment.
The animals were euthanized and their lungs were lavaged 24 h post-instillation using phosphate-buffered saline (PBS). The recovered BALF were centrifuged at 1,500 rpm for 4 min., and the resulting supernatants were removed and frozen at −80° C. for subsequent cytokine analysis.
Cytokine levels were quantitated using enzyme-linked immunosorbent assay (ELISA) kits as specified by the manufacturer (Genzyme Corporation, Framingham, MA).

mouse spleen cells [2] = test: IL-12 induction from mouse spleen cells; format: cell-based; conditions: for levels of IL-12 induction by GL-67:pCFA-CAT: addition of 10 μM of chloroquine or 1 μM of quinacrine; for levels of IL-12 induction by pCFA-CAT: co-addition of 10 μM of chloroquine or 1 μM of quinacrine, 24 hours
Description: 6-8 week old 8ALB/c mice were sacrificed by cervical dislocation. Spleens were excised and placed in sterile PBS on ice. To prepare single cell suspensions, the spleens were placed in a tissue culture dish in PBS and crushed between the frosted edges of two sterile microscope slides. Cells were pelleted by centrifugation at 1200 rpm for 8 min., and washed 3 times in PBS. After the final wash, the cells were resuspended in RPMI medium supplemented with 25 mM HEPES buffer, 10% fetal bovine serum, 2 mM L-glutamine, and 50 μM 2-mercaptoethanol (2-ME). The resuspended cells were then plated at 6×10^6 cells/ml/well in 24-well culture plates. Supernatant were collected 24 hr after addition of oligonucleotides or plasmid DNA for the measurement of cytokine (IL-12) production.

mouse spleen cells [3] = conditions: 10 μM chloroquine or 1 μM quinacrine
Description: Another strategy to reduce the stimulatory properties of the pDNA vector is to use specific inhibitors of 1 he CpG signaling pathway. […] These compounds were tested for their ability to inhibit the stimulatory properties of pDNA and cationic lipid-pDNA complexes in vitro and in the mouse lung.

BALB/c mice [4] = test: Lung histopathology after intranasal instillation; conditions: 2 days post-instillation, blinded
Description: The histopathological changes within BALB/c mouse lungs following administration of either cationic lipid alone, pDNA alone, or cationic lipid:pDNA complexes were also examined. […] Mice were sacrificed 2 days post-instillation and the lungs were processed for histological examination in a blinded manner.
Lungs were fixed by inflation at 30 cm of H2O pressure with 2% paraformaldehyde and 0.2% glutaraldehyde. Representative samples were taken from each lung lobe, embedded in glycol methacrylate, sectioned and stained with hematoxylin and eosin. Histopathology on the lung was evaluated in a blinded fashion and graded subjectively using a scale of 0 to 4, with a score of 0 indicating no abnormal findings and a score of 4 reflecting severe changes with intense infiltrates See Scheule et al., Hum.

| SMILES | cytokine levels in BALF at higher concentrations of the compound (BALB/c mice [1]) | inhibition of cytokine production in the lung (BALB/c mice [1]) [%] | induction of IL-12 production from mouse spleen cells in vitro (mouse spleen cells [2]) | levels of IL-12 induction by GL-67:pCFA-CAT (mouse spleen cells [2]) | levels of IL-12 induction by pCFA-CAT (mouse spleen cells [2]) | effects on cell viability (mouse spleen cells [3]) | effects on expression of the CAT reporter gene (mouse spleen cells [3]) | levels of TNF-α, IFN-γ, IL-6 and murine KC (these four cytokines) in the BALF (BALB/c mice [1]; 24 h after intranasal instillation of the component alone) | contribution to the cytokine induction in the BALF (BALB/c mice [1]; with the exception of KC) | lung inflammation (histopathology, score on a scale from 0 to 4) (BALB/c mice [4]) |
| --- | --- | --- | --- | --- | --- | --- | --- | --- | --- | --- |
| CCN(CC)CCCC(C)Nc1c2ccc(Cl)cc2nc2ccc(OC)cc12 (stereo not shown) [quinacrine] | did not further decrease | 50 | greatly reduced | near background levels | near background levels | no discernible effects | no discernible effects | – | – | – |
| CC(C)CCCC(C)C1CCC2C3CC=C4CC(OC(=O)N(CCCN)CCCCNCCCN)CCC4(C)C3CCC12C (stereo not shown) [GL-67] | – | – | – | – | – | – | – | low levels | did not contribute significantly | scored slightly lower |
| CCN(CC)CCCC(C)Nc1ccnc2cc(Cl)ccc12 (stereo not shown) [chloroquine] | did not further decrease | 50 | greatly reduced | near background levels | near background levels | – | no discernible effects | – | – | – |
